These results are taken from patent publication US20240067693A1, “POLYPEPTIDES AND USES THEREOF” (MEDIMMUNE LIMITED, priority 2020, published 2024).

One may read the EC50 as the concentration that produces a half-maximal response.

For experiment [1], the target named is T1, human amylin receptor (calcitonin receptor co-expressed with receptor activity modifying protein, RAMP3) (hAMYR3) (Homo sapiens, UniProt O60896+P30988).
T1 construct: expressed in transfected cells
T1 sequence (P30988 25-474): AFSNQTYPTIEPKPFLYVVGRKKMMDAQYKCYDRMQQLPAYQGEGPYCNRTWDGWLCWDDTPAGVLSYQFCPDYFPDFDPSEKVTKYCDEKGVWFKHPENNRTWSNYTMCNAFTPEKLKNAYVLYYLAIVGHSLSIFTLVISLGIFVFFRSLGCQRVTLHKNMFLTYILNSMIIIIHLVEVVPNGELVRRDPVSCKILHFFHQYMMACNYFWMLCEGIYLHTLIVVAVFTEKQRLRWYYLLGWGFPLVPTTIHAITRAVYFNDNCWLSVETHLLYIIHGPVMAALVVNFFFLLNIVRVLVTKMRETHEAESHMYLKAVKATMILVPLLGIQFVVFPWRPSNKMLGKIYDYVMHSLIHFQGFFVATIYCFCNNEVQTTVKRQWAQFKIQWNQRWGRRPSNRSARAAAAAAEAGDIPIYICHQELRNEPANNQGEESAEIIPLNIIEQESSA
T1 sequence (O60896 24-148 partner): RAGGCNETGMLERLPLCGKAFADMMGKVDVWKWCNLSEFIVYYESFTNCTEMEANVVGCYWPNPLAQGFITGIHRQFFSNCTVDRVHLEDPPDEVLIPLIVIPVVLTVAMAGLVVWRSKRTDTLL
The experiment in a line: cAMP production in 1321N1 cells with stable recombinant expression of human amylin receptor (hAMYR3). Conditions: for Ratio (selectivity hAMYR vs hCTR, ratio of EC50 values at the two receptors): EC50 hCTR / EC50 hAMYR3; for EC50: cAMP, 1321N1 cells, assay buffer with 0.1% BSA, read-out: EC50 (pM) hAMYR3. Type of experiment: cell-based. Summed up:
(§1)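 EC50 values come from 4-parameter logistic fits of HTRF cAMP signal, normalised to maximal calcitonin or amylin effect. Peptides were tested in duplicate for 30 min at RT in IBMX-containing (0.5 mM) BSA/HEPES buffer pH 7.4 on stable 1321N1 (human CTR, AMYR3) or HEK (rat CTR, AMYR3) lines.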
(In general: cAMP levels reflect the balance of adenylyl cyclase and phosphodiesterase activity.)

Experiment [2] has as its target T2, human calcitonin receptor (hCTR) (Homo sapiens, UniProt P30988).
T2 construct: expressed in transfected cells
T2 sequence (P30988 25-474): T1 sequence (P30988 25-474)
The experiment in a line: cAMP production in 1321N1 cells with stable recombinant expression of human calcitonin receptor (hCTR). Type of experiment: cell-based. The settings on record: cAMP, 1321N1 cells, assay buffer with 0.1% BSA; read-out: EC50 (pM) hCTR. Summed up:
as §1

Numbered stars: 1 amine (or outer) side, 2 acyl side, 3 side chain; on linkers, the order of the positions; unused ones are H or OH. Bridge positions count the residues as written; N and C are the ends. Square brackets hold non-standard residues; d marks the D form. Side chains are listed from the residue outwards. Peptide text beside a SMILES is read from it. * marks the point of attachment. C18 diacid = O=C(O)CCCCCCCCCCCCCCCCC(=O)*; γGlu = O=C(O)[C@H](CCC(=O)[*:2])N[*:1]; Aib = CC(C)(N)C(=O)O

Take `CC[C@H](C)[C@H](NC(=O)[C@@H]1CCCN1C(=O)CNC(=O)[C@H](Cc1ccccc1)NC(=O)[C@H](CC(N)=O)NC(=O)[C@H](Cc1c[nH]cn1)NC(=O)[C@H](CO)NC(=O)[C@H](CO)NC(=O)[C@H](Cc1c[nH]cn1)NC(=O)C(C)(C)NC(=O)[C@H](CC(C)C)NC(=O)[C@H](Cc1ccccc1)NC(=O)[C@H](CCC(=O)O)NC(=O)[C@H](C)NC(=O)[C@H](CC(C)C)NC(=O)[C@H](CCCNC(=N)N)NC(=O)[C@H](CCC(N)=O)NC(=O)[C@@H](NC(=O)[C@H](C)NC(=O)[C@@H]1CSSC[C@H](NC(=O)[C@H](CCCCN)NC(=O)[C@@H](N)CCCCNC(=O)CC[C@H](NC(=O)CCCCCCCCCCCCCCCCC(=O)O)C(=O)O)C(=O)N[C@@H](CC(N)=O)C(=O)N[C@@H]([C@@H](C)O)C(=O)N[C@@H](C)C(=O)N[C@@H]([C@@H](C)O)C(=O)N1)[C@@H](C)O)C(=O)N[C@@H](CC(C)C)C(=O)N1CCC[C@H]1C(=O)N1CCC[C@H]1C(=O)N[C@H](C(=O)N[C@@H](CC(N)=O)C(=O)N[C@H](C(=O)NCC(=O)N[C@@H](CO)C(=O)N[C@@H](CC(N)=O)C(=O)N[C@H](C(=O)N[C@@H](Cc1ccc(O)cc1)C(N)=O)[C@@H](C)O)C(C)C)[C@@H](C)O` [Peptide 130] (H-K([γGlu-C18 diacid])KCNTATCATQRLAEFL[Aib]HSSHNFGPILPPTNVGSNTY-NH2; disulfide 3-8; N-terminus assumed): in experiment [1], the “Ratio (selectivity hAMYR vs hCTR, ratio of EC50 values at the two receptors)” value was determined as 15 and the EC50 was 446 pM. In addition, in experiment [2], the EC50 is 6690 pM.
Regarding `CC[C@H](C)[C@H](NC(=O)[C@@H]1CCCN1C(=O)CNC(=O)[C@H](Cc1ccccc1)NC(=O)[C@H](CC(N)=O)NC(=O)[C@H](Cc1c[nH]cn1)NC(=O)[C@H](CO)NC(=O)[C@H](CO)NC(=O)[C@H](Cc1c[nH]cn1)NC(=O)C(C)(C)NC(=O)[C@H](CC(C)C)NC(=O)[C@H](Cc1ccccc1)NC(=O)[C@H](CC(N)=O)NC(=O)[C@H](C)NC(=O)[C@H](CC(C)C)NC(=O)[C@H](CCCNC(=N)N)NC(=O)[C@H](CCC(N)=O)NC(=O)[C@@H](NC(=O)[C@H](C)NC(=O)[C@@H]1CSSC[C@H](NC(=O)[C@H](CCCCN)NC(=O)[C@@H](N)CCCCNC(=O)CC[C@H](NC(=O)CCCCCCCCCCCCCCCCC(=O)O)C(=O)O)C(=O)N[C@@H](CC(N)=O)C(=O)N[C@@H]([C@@H](C)O)C(=O)N[C@@H](C)C(=O)N[C@@H]([C@@H](C)O)C(=O)N1)[C@@H](C)O)C(=O)N[C@@H](CC(C)C)C(=O)N1CCC[C@H]1C(=O)N1CCC[C@H]1C(=O)N[C@H](C(=O)N[C@@H](CC(N)=O)C(=O)N[C@H](C(=O)NCC(=O)N[C@@H](CO)C(=O)N[C@@H](CC(N)=O)C(=O)N[C@H](C(=O)N[C@@H](Cc1ccc(O)cc1)C(N)=O)[C@@H](C)O)C(C)C)[C@@H](C)O` [Peptide 131] (H-K([γGlu-C18 diacid])KCNTATCATQRLANFL[Aib]HSSHNFGPILPPTNVGSNTY-NH2; disulfide 3-8), in experiment [1], the “Ratio (selectivity hAMYR vs hCTR, ratio of EC50 values at the two receptors)” value was 20.5 and the EC50 was 737 pM. In addition, the EC50 in experiment [2] came to 15100 pM.
The corresponding values for `CC[C@H](C)[C@H](NC(=O)[C@@H]1CCCN1C(=O)CNC(=O)[C@H](Cc1ccccc1)NC(=O)[C@H](CC(N)=O)NC(=O)[C@@H]1CCCN1C(=O)[C@H](CO)NC(=O)[C@H](CO)NC(=O)[C@H](Cc1c[nH]cn1)NC(=O)C(C)(C)NC(=O)[C@H](CC(C)C)NC(=O)[C@H](Cc1ccccc1)NC(=O)[C@H](CC(N)=O)NC(=O)[C@H](C)NC(=O)[C@H](CC(C)C)NC(=O)[C@H](CCCNC(=N)N)NC(=O)[C@H](CCC(N)=O)NC(=O)[C@@H](NC(=O)[C@H](C)NC(=O)[C@@H]1CSSC[C@H](NC(=O)[C@H](CCCCN)NC(=O)[C@@H](N)CCCCNC(=O)CC[C@H](NC(=O)CCCCCCCCCCCCCCCCC(=O)O)C(=O)O)C(=O)N[C@@H](CC(N)=O)C(=O)N[C@@H]([C@@H](C)O)C(=O)N[C@@H](C)C(=O)N[C@@H]([C@@H](C)O)C(=O)N1)[C@@H](C)O)C(=O)N[C@@H](CC(C)C)C(=O)N1CCC[C@H]1C(=O)N1CCC[C@H]1C(=O)N[C@H](C(=O)N[C@@H](CC(N)=O)C(=O)N[C@H](C(=O)NCC(=O)N[C@@H](CO)C(=O)N[C@@H](CC(N)=O)C(=O)N[C@H](C(=O)N[C@@H](Cc1ccc(O)cc1)C(N)=O)[C@@H](C)O)C(C)C)[C@@H](C)O` [Peptide 132] (H-K([γGlu-C18 diacid])KCNTATCATQRLANFL[Aib]HSSPNFGPILPPTNVGSNTY-NH2; disulfide 3-8) are 9.3, 416 pM and 3850 pM.
Taken in the same sequence, the figures for `CC[C@H](C)[C@H](NC(=O)[C@@H]1CCCN1C(=O)CNC(=O)[C@H](Cc1ccccc1)NC(=O)[C@H](CC(N)=O)NC(=O)[C@H](CO)NC(=O)[C@H](CO)NC(=O)[C@H](CO)NC(=O)[C@H](Cc1c[nH]cn1)NC(=O)C(C)(C)NC(=O)[C@H](CC(C)C)NC(=O)[C@H](Cc1ccccc1)NC(=O)[C@H](CC(N)=O)NC(=O)[C@H](C)NC(=O)[C@H](CC(C)C)NC(=O)[C@H](CCCNC(=N)N)NC(=O)[C@H](CCC(N)=O)NC(=O)[C@@H](NC(=O)[C@H](C)NC(=O)[C@@H]1CSSC[C@H](NC(=O)[C@H](CCCCN)NC(=O)[C@@H](N)CCCCNC(=O)CC[C@H](NC(=O)CCCCCCCCCCCCCCCCC(=O)O)C(=O)O)C(=O)N[C@@H](CC(N)=O)C(=O)N[C@@H]([C@@H](C)O)C(=O)N[C@@H](C)C(=O)N[C@@H]([C@@H](C)O)C(=O)N1)[C@@H](C)O)C(=O)N[C@@H](CC(C)C)C(=O)N1CCC[C@H]1C(=O)N1CCC[C@H]1C(=O)N[C@H](C(=O)N[C@@H](CC(N)=O)C(=O)N[C@H](C(=O)NCC(=O)N[C@@H](CO)C(=O)N[C@@H](CC(N)=O)C(=O)N[C@H](C(=O)N[C@@H](Cc1ccc(O)cc1)C(N)=O)[C@@H](C)O)C(C)C)[C@@H](C)O` [Peptide 133] (H-K([γGlu-C18 diacid])KCNTATCATQRLANFL[Aib]HSSSNFGPILPPTNVGSNTY-NH2; disulfide 3-8; N-terminus assumed) were 6.8, 378 pM and 2580 pM.
The corresponding values for `CC[C@H](C)[C@H](NC(=O)[C@@H]1CCCN1C(=O)CNC(=O)[C@H](Cc1ccccc1)NC(=O)[C@H](CC(N)=O)NC(=O)[C@H](CC(N)=O)NC(=O)[C@H](CO)NC(=O)[C@H](CO)NC(=O)[C@H](Cc1c[nH]cn1)NC(=O)C(C)(C)NC(=O)[C@H](CC(C)C)NC(=O)[C@H](Cc1ccccc1)NC(=O)[C@H](CC(N)=O)NC(=O)[C@H](C)NC(=O)[C@H](CC(C)C)NC(=O)[C@H](CCCNC(=N)N)NC(=O)[C@H](CCC(N)=O)NC(=O)[C@@H](NC(=O)[C@H](C)NC(=O)[C@@H]1CSSC[C@H](NC(=O)[C@H](CCCCN)NC(=O)[C@@H](N)CCCCNC(=O)CC[C@H](NC(=O)CCCCCCCCCCCCCCCCC(=O)O)C(=O)O)C(=O)N[C@@H](CC(N)=O)C(=O)N[C@@H]([C@@H](C)O)C(=O)N[C@@H](C)C(=O)N[C@@H]([C@@H](C)O)C(=O)N1)[C@@H](C)O)C(=O)N[C@@H](CC(C)C)C(=O)N1CCC[C@H]1C(=O)N1CCC[C@H]1C(=O)N[C@H](C(=O)N1CCC[C@H]1C(=O)N[C@H](C(=O)NCC(=O)N[C@@H](CO)C(=O)N[C@@H](CC(N)=O)C(=O)N[C@H](C(=O)N[C@@H](Cc1ccc(O)cc1)C(N)=O)[C@@H](C)O)C(C)C)[C@@H](C)O` [Peptide 134] (H-K([γGlu-C18 diacid])KCNTATCATQRLANFL[Aib]HSSNNFGPILPPTPVGSNTY-NH2; disulfide 3-8; N-terminus assumed) are 7.9, 281 pM and 2220 pM.
Turning to `CC[C@H](C)[C@H](NC(=O)[C@@H]1CCCN1C(=O)CNC(=O)[C@H](Cc1ccccc1)NC(=O)[C@H](Cc1c[nH]cn1)NC(=O)[C@H](CC(N)=O)NC(=O)[C@H](CO)NC(=O)[C@H](CO)NC(=O)[C@H](Cc1c[nH]cn1)NC(=O)C(C)(C)NC(=O)[C@H](CC(C)C)NC(=O)[C@H](Cc1ccccc1)NC(=O)[C@H](CC(N)=O)NC(=O)[C@H](C)NC(=O)[C@H](CC(C)C)NC(=O)[C@H](CCCNC(=N)N)NC(=O)[C@H](CCC(N)=O)NC(=O)[C@@H](NC(=O)[C@H](C)NC(=O)[C@@H]1CSSC[C@H](NC(=O)[C@H](CCCCN)NC(=O)[C@@H](N)CCCCNC(=O)CC[C@H](NC(=O)CCCCCCCCCCCCCCCCC(=O)O)C(=O)O)C(=O)N[C@@H](CC(N)=O)C(=O)N[C@@H]([C@@H](C)O)C(=O)N[C@@H](C)C(=O)N[C@@H]([C@@H](C)O)C(=O)N1)[C@@H](C)O)C(=O)N[C@@H](CC(C)C)C(=O)N1CCC[C@H]1C(=O)N1CCC[C@H]1C(=O)N[C@H](C(=O)N[C@@H](CC(N)=O)C(=O)N[C@H](C(=O)NCC(=O)N[C@@H](CO)C(=O)N[C@@H](CC(N)=O)C(=O)N[C@H](C(=O)N[C@@H](Cc1ccc(O)cc1)C(N)=O)[C@@H](C)O)C(C)C)[C@@H](C)O` [Peptide 135] (H-K([γGlu-C18 diacid])KCNTATCATQRLANFL[Aib]HSSNHFGPILPPTNVGSNTY-NH2; disulfide 3-8; N-terminus assumed), in experiment [1], the “Ratio (selectivity hAMYR vs hCTR, ratio of EC50 values at the two receptors)” value was 1.2 and the EC50 is 296 pM. In addition, the EC50 in experiment [2] amounted to 345 pM.
